Assay results published in PubChem BioAssay (NCI).
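Cells were grown in 96-well plates and exposed to each compound for 48 hours at five concentrations; endpoints were interpolated linearly between bracketing concentrations, or set to the highest concentration if not reached. TGI marks complete inhibition of growth.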

Experiments:
Assay in all cases: DTP human tumour cell line panel, 48 h
ACHN renal = tested on: ACHN renal
OVCAR-8 ovarian = tested on: OVCAR-8 ovarian
SNB-19 CNS = tested on: SNB-19 CNS
SK-MEL-28 melanoma = tested on: SK-MEL-28 melanoma
HOP-62 NSCLC = tested on: HOP-62 NSCLC
SK-OV-3 ovarian = tested on: SK-OV-3 ovarian
OVCAR-5 ovarian = tested on: OVCAR-5 ovarian
IGROV1 ovarian = tested on: IGROV1 ovarian
KM12 colon = tested on: KM12 colon
SF-295 CNS = tested on: SF-295 CNS
UO-31 renal = tested on: UO-31 renal
786-0 renal = tested on: 786-0 renal
SF-268 CNS = tested on: SF-268 CNS
NCI-H23 lung = tested on: NCI-H23 lung
MOLT-4 leukemia = tested on: MOLT-4 leukemia
HL-60(TB) leukemia = tested on: HL-60(TB) leukemia

SMILES | TGI (ACHN renal) | TGI (OVCAR-8 ovarian) | TGI (SNB-19 CNS) | TGI (SK-MEL-28 melanoma) | TGI (HOP-62 NSCLC) | TGI (SK-OV-3 ovarian) | TGI (OVCAR-5 ovarian) | TGI (IGROV1 ovarian) | TGI (KM12 colon) | TGI (SF-295 CNS) | TGI (UO-31 renal) | TGI (786-0 renal) | TGI (SF-268 CNS) | TGI (NCI-H23 lung) | TGI (MOLT-4 leukemia) | TGI (HL-60(TB) leukemia)
O[C@@]1(C#Cc2ccc3c(c2)OCO3)CCC[C@H]1NCc1ccccc1 | > 100 µM | 59 µM | 68.4 µM | 38.1 µM | 78.2 µM | > 100 µM | > 100 µM | 46.9 µM | 42.7 µM | 40.3 µM | 43.9 µM | 31.3 µM | > 100 µM | > 100 µM | 45.1 µM | 39.1 µM
C=C1c2nc3ccccc3n2C=C(c2ccccc2)N1c1ccc(Cl)cc1 | 38.4 µM | > 93.1 µM | > 100 µM | > 100 µM | > 63.3 µM | > 86.7 µM | > 100 µM | > 89.5 µM | 66.3 µM | 49.2 µM | > 100 µM | 20.6 µM | > 100 µM | 79.7 µM | > 100 µM | > 100 µM
C/C(O)=C(\C=N\C(=S)N=Nc1c(O)[nH]c2ccccc12)C(=O)Nc1ccccc1C | > 100 µM | > 100 µM | > 100 µM | > 100 µM | > 100 µM | > 100 µM | > 100 µM | > 100 µM | > 100 µM | > 100 µM | > 100 µM | > 100 µM | > 100 µM | > 100 µM | > 100 µM | > 100 µM
c1ccc2sc(SSSc3nc4ccccc4s3)nc2c1 | > 100 µM | > 100 µM | > 100 µM | > 100 µM | > 100 µM | > 100 µM | > 100 µM | > 100 µM | > 100 µM | > 100 µM | > 100 µM | > 100 µM | > 100 µM | > 100 µM | > 100 µM | > 100 µM
CC(O)CNC(=O)Nc1c(C(F)(F)F)cc(-c2ccccc2)[nH]c1=O (stereo unspecified) | > 100 µM | > 100 µM | > 100 µM | > 100 µM | > 100 µM | > 100 µM | > 100 µM | > 100 µM | > 100 µM | > 100 µM | > 100 µM | > 100 µM | > 100 µM | > 100 µM | > 100 µM | 1.54 µM
C=C1CC[C@@H]2C13[C@@H]1[C@H](CC(=O)[C@@]23C)C1(C)C (stereo partly specified) | > 100 µM | > 100 µM | – | > 100 µM | > 100 µM | > 100 µM | > 100 µM | > 100 µM | > 100 µM | > 100 µM | > 100 µM | > 100 µM | > 100 µM | > 100 µM | > 100 µM | > 100 µM
C=C(COCO)C(C)=O | 29.2 µM | 24.6 µM | > 100 µM | 32 µM | > 68.5 µM | > 100 µM | 35.3 µM | 35.9 µM | > 54.5 µM | > 100 µM | 25.7 µM | 25.6 µM | 38 µM | 35.4 µM | 6.08 µM | 5.78 µM
